The text below walks through data of BindingDB's records for doi:10.7270/Q2RF5SF5 (Burnham Center For Chemical Genomics, 2008).

Molecules are shown by their SMILES. Where only a bound is given, the exact number is not on record here.

In the experiment the target is Heat shock 70 kDa protein 1A (Homo sapiens, UniProt V9GZ37). Nature of the experiment: small-molecule inhibition of Hsp70 – biochemical, TR-FRET (AID 786). A general note: TR-FRET usually uses a lanthanide donor and a delayed reading to cut background.
Heat shock 70 kDa protein 1A, sequence (V9GZ37 whole entry): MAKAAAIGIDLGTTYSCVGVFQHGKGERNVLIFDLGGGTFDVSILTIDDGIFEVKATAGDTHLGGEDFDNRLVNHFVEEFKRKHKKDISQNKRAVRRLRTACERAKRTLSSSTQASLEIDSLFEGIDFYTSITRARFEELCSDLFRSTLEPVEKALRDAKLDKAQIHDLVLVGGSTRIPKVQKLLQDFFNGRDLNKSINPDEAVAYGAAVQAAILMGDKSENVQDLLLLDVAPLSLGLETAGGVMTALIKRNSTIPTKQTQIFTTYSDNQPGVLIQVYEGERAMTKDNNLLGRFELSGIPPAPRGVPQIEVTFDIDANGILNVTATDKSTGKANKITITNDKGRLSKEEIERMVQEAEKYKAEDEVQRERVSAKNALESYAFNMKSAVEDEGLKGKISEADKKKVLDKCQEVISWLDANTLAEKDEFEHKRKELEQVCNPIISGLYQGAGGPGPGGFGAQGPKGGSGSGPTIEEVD

For the compound `C=c1[nH]n(-c2cccc(C(=O)O)c2)c(=O)c1=CC=Cc1ccco1` [SMR000113614], the half-inhibitory concentration (IC50) – broadly, the concentration at which inhibition is half-maximal – stood at 17.4 µM.

Compound `CC(=O)N1CCC2(CC1)c1c(n[nH]c1C)OC(=N)C2C#N` (configuration not stated) [6-azanyl-1'-ethanoyl-3-methyl-spiro[2H-pyrano[2,3-c]pyrazole-4,4'-piperidine]-5-carbonitrile] gave an IC50 greater than 100 µM.
